pIC50: −log10 of the molar value.

One may read the pIC50 as −log10 of the IC50, conventionally taken in molar units. Low values mean a large IC50, high ones a small IC50.

The experiment concerns the target Replicase polyprotein 1ab (Severe acute respiratory syndrome coronavirus 2, UniProt P0DTD1). Briefly: Inhibition of SARS-COV-2 main protease using fluorogenic substrate (DABCYL)-Lys-Thr- Ser-Ala-Val-Leu-Gln-Ser-Gly-Phe-Arg-Lys-Met-Glu-(EDANS)-NH2 measured every 5 mins for 50 mins by plate reader assay.
The compound `CC1(C)C=Cc2c(ccc3cc(C(=O)N/N=C/c4ccc5ncccc5c4)oc23)O1` had a pIC50 of 4.47.

`CC1(C)C=Cc2c(ccc3cc(C(=O)N/N=C/c4cccc5ncccc45)oc23)O1`: the pIC50 was 4.37.

`CC1(C)C=Cc2c(ccc3cc(C(=O)N/N=C/c4cnc5ccccc5c4)oc23)O1` showed a pIC50 of 4.53.

Consider `CC1(C)C=Cc2c(ccc3cc(C(=O)N/N=C/c4cccc5cccnc45)oc23)O1`, for which the negative-log IC50 (pIC50) was 4.79.

Consider `CC1(C)C=Cc2c(ccc3cc(C(=O)N/N=C/c4ccnc5ccccc45)oc23)O1`, for which the pIC50 is 3.89. This pIC50 lies 0.90 log units lower than the previous one.

Regarding `CC1(C)C=Cc2c(ccc3cc(C(=O)N/N=C/c4ccc5cccc(O)c5n4)oc23)O1`, the negative-log IC50 (pIC50) is 3.74.

`CC1(C)C=Cc2c(ccc3cc(C(=O)N/N=C/c4ccc5ccccc5n4)oc23)O1`: the pIC50 was < 3.60.

These data come from ChEMBL document CHEMBL5579811, “Synthesis, SARS-CoV-2 main protease inhibition, molecular docking and in silico ADME studies of furanochromene-quinoline hydrazone derivatives” (Bioorg Med Chem Lett, 2024).
